Reference: ChEMBL document CHEMBL1914357, “Synthesis of anomeric 1,5-anhydrosugars as conformationally locked selective α-mannosidase inhibitors” (Bioorg Med Chem, 2011)
Active and inactive are the calls of the source. No cut-off for these calls is given here.

Tests used:
[1] = Inhibition of alpha-mannosidase
[2] = Inhibition of jack bean alpha-mannosidase assessed as p-nitrophenol release using p-nitrophenyl-alpha-D-mannopyranoside as substrate after 15 to 60 mins by spectrophotometry; parameters: species or system Canavalia ensiformis
[3] = Inhibition of jack bean alpha-mannosidase assessed as p-nitrophenol release using p-nitrophenyl-alpha-D-mannopyranoside as substrate preincubated for 1 hr before substrate addition at pH 4.5 measured after 10 mins by spectrophotometry; parameters: species or system Canavalia ensiformis
[4] = biological target: T1, Pancreatic alpha-amylase (Sus scrofa) (UniProt P00690); test: Inhibition of pig pancreatic alpha-amylase assessed as maltose release from starch at 5 mg/cm'3 after 10 mins by DNSA assay
T1 sequence (whole entry): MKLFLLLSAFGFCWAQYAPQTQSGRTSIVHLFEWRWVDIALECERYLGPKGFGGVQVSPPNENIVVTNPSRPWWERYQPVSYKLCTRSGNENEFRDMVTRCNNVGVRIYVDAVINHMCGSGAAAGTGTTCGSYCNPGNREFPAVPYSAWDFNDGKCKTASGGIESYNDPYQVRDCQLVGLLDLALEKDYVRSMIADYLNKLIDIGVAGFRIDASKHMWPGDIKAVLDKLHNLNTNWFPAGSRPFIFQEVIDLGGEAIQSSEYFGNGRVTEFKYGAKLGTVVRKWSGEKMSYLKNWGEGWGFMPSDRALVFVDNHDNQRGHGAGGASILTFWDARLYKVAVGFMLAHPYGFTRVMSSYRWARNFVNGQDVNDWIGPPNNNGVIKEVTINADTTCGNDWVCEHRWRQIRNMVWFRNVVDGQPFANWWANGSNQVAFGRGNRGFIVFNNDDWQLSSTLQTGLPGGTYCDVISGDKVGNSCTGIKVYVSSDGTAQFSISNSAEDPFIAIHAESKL

[5] = Inhibition of alpha-galactosidase assessed as p-nitrophenol release using p-nitrophenyl-alpha-D-galactopyranoside as substrate preincubated for 1 hr before substrate addition measured after 10 mins by spectrophotometry
[6] = Inhibition of alpha-glucosidase assessed as p-nitrophenol release using p-nitrophenyl-alpha-D-glucopyranoside as substrate preincubated for 1 hr before substrate addition at pH 6.8 measured after 10 mins by spectrophotometry

Row | IC50 [3] [µM] | inhibition [4] | inhibition [5] | inhibition [6] | SMILES | IC50 [1] [µM] | IC50 [2] [µM]
1 | – | – | – | – | OC[C@@H]1CC2NCC1(O)C(O)C2O (stereo partly specified) | 9600 | –
2 | – | – | – | – | O[C@H]1[C@H]2[C@H](O)CCCN2C[C@H]1O [TRIDOLGOSIR] | – | 0.1
3 | – | – | – | – | OC[C@@H]1CC2C(O)C(O)C1(O)CN2Cc1ccccc1 (stereo partly specified) | 20000 | –
4 | 98.3 | inactive | inactive | inactive | NC[C@H]1O[C@@H]2OCC[C@@]1(O)[C@H]2O | – | –
5 | 133 | inactive | inactive | inactive | OC[C@H]1O[C@@H]2OCC[C@@]1(O)[C@H]2O | – | –
